Measurements from ChEMBL document CHEMBL1150388, “Discovery of orally active pyrrolopyridine- and aminopyridine-based Met kinase inhibitors” (Bioorg Med Chem Lett, 2008).

Tests used:
[1] = target: Hepatocyte growth factor receptor (Homo sapiens, UniProt P08581); test: Inhibition of Met kinase
[2] = Antiproliferative activity against human GTL16 cells; type: functional, cell-based; settings: GTL 16
[3] = AUC (0 to 8 hrs) in mouse at 50 mg/kg, po; type: ADME, organism-based; parameters: time < 8 hr, dose 50 mg/kg, route oral; settings: plasma
[4] = Cmax in mouse at 50 mg/kg, po; type: ADME, organism-based; parameters: dose 50 mg/kg, route oral; settings: in vivo
[5] = Tmax in mouse at 50 mg/kg, po; type: ADME, organism-based; parameters: dose 50 mg/kg, route oral; settings: in vivo
[6] = Metabolic stability in mouse liver microsomes at 3 uM after 10 mins; type: ADME, Microsome
Liver microsomes = test: Metabolic stability in human liver microsomes at 3 uM after 10 mins; type: ADME, Microsome
Cytochrome P450 3A4 = Cytochrome P450 3A4 (Homo sapiens, UniProt P08684); test: Inhibition of human CYP3A4; type: ADME
Sequence of Cytochrome P450 3A4 (P08684 whole entry): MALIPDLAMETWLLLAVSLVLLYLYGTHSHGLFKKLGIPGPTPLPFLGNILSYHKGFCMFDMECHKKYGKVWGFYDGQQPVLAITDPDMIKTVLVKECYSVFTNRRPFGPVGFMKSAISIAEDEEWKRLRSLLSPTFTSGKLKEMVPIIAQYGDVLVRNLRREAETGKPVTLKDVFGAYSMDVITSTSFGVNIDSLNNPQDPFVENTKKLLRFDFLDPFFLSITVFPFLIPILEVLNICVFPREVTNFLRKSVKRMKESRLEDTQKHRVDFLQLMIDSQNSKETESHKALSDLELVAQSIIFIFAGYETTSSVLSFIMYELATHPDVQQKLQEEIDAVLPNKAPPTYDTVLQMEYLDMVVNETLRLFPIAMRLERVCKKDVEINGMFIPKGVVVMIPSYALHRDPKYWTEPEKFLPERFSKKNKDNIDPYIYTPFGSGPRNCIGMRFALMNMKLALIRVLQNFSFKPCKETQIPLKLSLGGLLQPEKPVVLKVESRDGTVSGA

[7] = Antitumor activity in human GTL16 cells xenografted athymic mouse 50 mg/kg, po daily once for 14 days; type: functional; settings: GTL 16, 336 h, read-out: TGI
[8] = Antitumor activity in human GTL16 cells xenografted athymic mouse 100 mg/kg, po daily once for 14 days; type: functional; settings: GTL 16, 336 h, read-out: TGI
[9] = Protein binding in mouse plasma; type: ADME, cell-free; settings: read-out: PPB (converted)
[10] = Antitumor activity in human GTL16 cells xenografted athymic mouse 75 mg/kg, po daily once for 14 days; type: functional; settings: GTL 16, 336 h, read-out: TGI
[11] = Antitumor activity in human GTL16 cells xenografted athymic mouse 125 mg/kg, po daily once for 14 days; type: functional; settings: GTL 16, 336 h, read-out: TGI
[12] = AUC (0 to 4 hrs) in mouse at 50 mg/kg, po; type: ADME, organism-based; parameters: time < 4 hr, dose 50 mg/kg, route oral; settings: plasma
[13] = Antitumor activity in human GTL16 cells xenografted athymic mouse 25 mg/kg, po daily once for 14 days; type: functional; settings: GTL 16, 336 h, read-out: TGI

Sequence of Hepatocyte growth factor receptor (P08581 whole entry): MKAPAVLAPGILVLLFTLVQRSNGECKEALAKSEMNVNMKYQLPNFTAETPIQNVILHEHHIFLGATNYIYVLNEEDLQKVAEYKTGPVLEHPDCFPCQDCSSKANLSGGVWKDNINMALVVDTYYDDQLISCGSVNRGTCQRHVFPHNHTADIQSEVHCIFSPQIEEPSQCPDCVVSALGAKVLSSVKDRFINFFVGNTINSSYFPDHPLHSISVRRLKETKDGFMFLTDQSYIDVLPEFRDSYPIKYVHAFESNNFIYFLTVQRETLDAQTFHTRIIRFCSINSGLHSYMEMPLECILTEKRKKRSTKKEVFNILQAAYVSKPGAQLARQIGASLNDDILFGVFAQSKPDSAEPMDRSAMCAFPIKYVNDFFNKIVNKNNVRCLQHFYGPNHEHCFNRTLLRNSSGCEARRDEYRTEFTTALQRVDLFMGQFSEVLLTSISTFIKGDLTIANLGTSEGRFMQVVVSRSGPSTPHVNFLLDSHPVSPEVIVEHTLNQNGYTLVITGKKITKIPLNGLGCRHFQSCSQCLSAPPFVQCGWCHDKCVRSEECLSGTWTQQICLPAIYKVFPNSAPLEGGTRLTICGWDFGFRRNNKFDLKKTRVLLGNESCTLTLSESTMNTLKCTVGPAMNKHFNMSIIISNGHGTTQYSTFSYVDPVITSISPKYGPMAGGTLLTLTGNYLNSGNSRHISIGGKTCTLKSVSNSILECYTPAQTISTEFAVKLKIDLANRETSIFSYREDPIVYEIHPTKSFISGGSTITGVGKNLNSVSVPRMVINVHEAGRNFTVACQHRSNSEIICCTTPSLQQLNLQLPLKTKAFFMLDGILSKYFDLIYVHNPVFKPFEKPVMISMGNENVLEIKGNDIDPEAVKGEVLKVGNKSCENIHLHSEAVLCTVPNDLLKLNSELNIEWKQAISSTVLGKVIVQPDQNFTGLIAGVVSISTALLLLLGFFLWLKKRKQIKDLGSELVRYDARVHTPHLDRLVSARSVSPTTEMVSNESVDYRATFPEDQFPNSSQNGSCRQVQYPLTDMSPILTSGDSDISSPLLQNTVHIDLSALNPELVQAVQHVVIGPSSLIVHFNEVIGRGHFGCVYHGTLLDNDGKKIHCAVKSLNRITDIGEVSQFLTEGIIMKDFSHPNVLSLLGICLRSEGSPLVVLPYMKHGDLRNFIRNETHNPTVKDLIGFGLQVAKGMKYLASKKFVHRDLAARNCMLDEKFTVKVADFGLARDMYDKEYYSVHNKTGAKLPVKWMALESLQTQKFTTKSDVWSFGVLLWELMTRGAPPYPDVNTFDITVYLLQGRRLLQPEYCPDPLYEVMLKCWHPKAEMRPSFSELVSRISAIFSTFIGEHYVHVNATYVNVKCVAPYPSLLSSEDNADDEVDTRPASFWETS

O=C(Cc1ccc(F)cc1)NC(=O)Nc1ccc(Oc2ccnc3[nH]cc(C(=O)CN4CCC(O)C4)c23)c(F)c1 (stereo not drawn)
IC50 [1]: 0.019 µM
IC50 [2]: 1.47 µM

O=C(Cc1ccc(F)cc1)NC(=O)Nc1ccc(Oc2ccnc3[nH]c(-c4cccnc4)cc23)c(F)c1
AUC(0-t) at 8 h [3]: 11.4 µM·h
Cmax [4]: 2.1 µM
IC50 [1]: 0.002 µM
Tmax [5]: 4 h
Rate of metabolism [6]: 0.036 nmol/min/mg
Stability (Liver microsomes): 0.016 nmol/min/mg
IC50 [2]: 0.03 µM

O=C(Cc1ccc(F)cc1)NC(=O)Nc1ccc(Oc2ccnc3[nH]cc(C(=O)NCc4cccnc4)c23)c(F)c1
IC50 [1]: 0.011 µM
IC50 [2]: 0.65 µM

NCC#Cc1c(Oc2ccc(NC(=O)NC(=O)Cc3ccc(F)cc3)cc2F)ccnc1N
IC50 (Cytochrome P450 3A4): 1.8 µM
IC50 [1]: 0.005 µM
IC50 [2]: 0.25 µM

CN(C)CC#Cc1c(Oc2ccc(NC(=O)NC(=O)Cc3ccc(F)cc3)cc2F)ccnc1N
IC50 (Cytochrome P450 3A4): 2.7 µM
IC50 [1]: 0.004 µM
IC50 [2]: 0.22 µM

C#Cc1c(Oc2ccc(NC(=O)NC(=O)Cc3ccc(F)cc3)cc2F)ccnc1N
IC50 (Cytochrome P450 3A4): 0.8 µM
IC50 [1]: 0.002 µM
IC50 [2]: 0.04 µM

O=C(Cc1ccc(F)cc1)NC(=O)Nc1ccc(Oc2ccnc3[nH]cc(-c4cccnc4)c23)c(F)c1
inhibition in vivo at 50 mg/kg [7]: 67%
AUC(0-t) at 8 h [3]: 34 µM·h
Cmax [4]: 6 µM
IC50 [1]: 0.002 µM
Tmax [5]: 4 h
Rate of metabolism [6]: 0.049 nmol/min/mg
Stability (Liver microsomes): 0.038 nmol/min/mg
IC50 [2]: 0.02 µM
inhibition in vivo at 100 mg/kg [8]: 88%

CN(C)CC(=O)c1c[nH]c2nccc(Oc3ccc(NC(=O)NC(=O)Cc4ccc(F)cc4)cc3F)c12
IC50 [1]: 0.044 µM
IC50 [2]: 1.05 µM

Nc1nc(-c2c[nH]c3nccc(Oc4ccc(NC(=O)NC(=O)Cc5ccc(F)cc5)cc4F)c23)cs1
IC50 [1]: 0.007 µM
IC50 [2]: 0.03 µM

Nc1nccc(Oc2ccc(NC(=O)NC(=O)Cc3ccc(F)cc3)cc2F)c1C#Cc1ccccn1
fraction unbound [9]: 0.0002
inhibition in vivo at 50 mg/kg [7]: < 50%
AUC(0-t) at 8 h [3]: 85 µM·h
Cmax [4]: 16 µM
IC50 (Cytochrome P450 3A4): 37 µM
IC50 [1]: 0.005 µM
Tmax [5]: 4 h
Rate of metabolism [6]: 0.042 nmol/min/mg
Stability (Liver microsomes): 0 nmol/min/mg
IC50 [2]: 0.04 µM

CN1CCN(CC(=O)c2c[nH]c3nccc(Oc4ccc(NC(=O)NC(=O)Cc5ccc(F)cc5)cc4F)c23)CC1
IC50 [1]: 0.011 µM
IC50 [2]: 2.22 µM

Nc1cc(Oc2ccc(NC(=O)NC(=O)Cc3ccc(F)cc3)cc2F)ccn1
inhibition in vivo at 75 mg/kg [10]: 80%
Cmax [4]: 10.5 µM
IC50 [1]: 0.035 µM
Tmax [5]: 4 h
inhibition in vivo at 125 mg/kg [11]: 98%
AUC(0-t) at 4 h [12]: 33 µM·h
Rate of metabolism [6]: 0.018 nmol/min/mg
Stability (Liver microsomes): 0 nmol/min/mg
IC50 [2]: 0.29 µM
inhibition in vivo at 25 mg/kg [13]: < 50%

O=C(CC(=O)Nc1ccc(Oc2ccnc3[nH]ccc23)c(F)c1)Nc1ccc(F)cc1
IC50 [1]: 0.064 µM
IC50 [2]: 1.06 µM

COC(=O)c1c[nH]c2nccc(Oc3ccc(NC(=O)NC(=O)Cc4ccc(F)cc4)cc3F)c12
IC50 [1]: 0.005 µM
IC50 [2]: 0.18 µM

Nc1cc(Oc2ccc(NC(=O)CC(=O)Nc3ccc(F)cc3)cc2F)ccn1
IC50 [1]: 0.1 µM
IC50 [2]: 1.49 µM

Nc1nccc(Oc2ccc(NC(=O)NC(=O)Cc3ccc(F)cc3)cc2F)c1C#CCO
IC50 (Cytochrome P450 3A4): 0.7 µM
IC50 [1]: 0.003 µM
IC50 [2]: 0.03 µM

O=C(Cc1ccc(F)cc1)NC(=O)Nc1ccc(Oc2ccnc3[nH]cc(CO)c23)c(F)c1
IC50 [1]: 0.004 µM
IC50 [2]: 0.18 µM

O=C(Cc1ccc(F)cc1)NC(=O)Nc1ccc(Oc2ccnc3[nH]ccc23)c(F)c1
Cmax [4]: 2.4 µM
IC50 [1]: 0.11 µM
Tmax [5]: 4 h
AUC(0-t) at 4 h [12]: 6 µM·h
Rate of metabolism [6]: 0.035 nmol/min/mg
Stability (Liver microsomes): 0.015 nmol/min/mg
IC50 [2]: 0.15 µM
